Measured values: ChEMBL document CHEMBL6115030, “Systematic All-Hydrocarbon Stapling Analysis for Cecropin A Generates a Potent and Stable Antimicrobial Peptide” (J Med Chem, 2025)
Converted amounts (≈) assume the structure as drawn. The source made the active and inactive calls. No cut-off for these calls is given here. Bridge positions count the residues as written; N and C are the ends. Square brackets hold non-standard residues; d marks the D form. Peptide text beside a SMILES is read from it. S5 = C=CCCC[C@](C)(N)C(=O)O

Experiments:
Shigella flexneri = assay: Antibacterial activity against Shigella flexneri 301 assessed as inhibition of bacterial growth measured after 24 hrs by broth microdilution method; format: functional
Escherichia coli [1] = assay: Induction of metabolism related pathways in Escherichia coli assessed as protein synthesis pathway mRNAs at 12.5 uM measured after 2 hrs incubation by PCR analysis; format: functional, organism-based
Pseudomonas aeruginosa [2] = assay: Antibacterial activity against Pandrug-resistant Pseudomonas aeruginosa assessed as inhibition of bacterial growth measured after 24 hrs by broth microdilution method; format: functional
Escherichia coli [3] = assay: Induction of outer membrane synthesis related pathways in Escherichia coli assessed as change in OmpG gene expression at 12.5 uM measured after 2 hrs incubation by PCR analysis; format: functional, organism-based
Escherichia coli [4] = assay: Induction of metabolism related pathways in Escherichia coli assessed as energetic metabolism pathway mRNAs at 12.5 uM measured after 2 hrs incubation by PCR analysis; format: functional, organism-based
Escherichia coli [5] = assay: Induction of multiple envelope stress pathway related pathways in Escherichia coli assessed as change in FimA gene expression at 12.5 uM measured after 2 hrs incubation by PCR analysis; format: functional, organism-based
[6] = Toxicity in C57BL/6 female mouse assessed as haemorrhagic point and blurred white pulp boundary in spleen at 25 mg/kg, ip measured during 14 days of study by H and E staining based analysis; format: organism-based; conditions: in vivo, 336 h, time 14 day
Escherichia coli [7] = assay: In vivo antibacterial activity against Escherichia coli intraperitoneally injected into C57BL/6 mouse peritonitis model assessed as reduction in bacterial load in liver at 2.5 mg/kg, ip measured after 48 hrs relative to control; format: functional, organism-based
Escherichia coli [8] = assay: Induction of LPS transport pathway related genes in Escherichia coli assessed as change in LptB gene expression at 12.5 uM measured after 2 hrs incubation by PCR analysis; format: functional, organism-based
Escherichia coli [9] = assay: Induction of multiple envelope stress pathway related pathways in Escherichia coli assessed as change in WcaC gene expression at 12.5 uM measured after 2 hrs incubation by PCR analysis; format: functional, organism-based
Cell membrane [10] = assay: Induction of Outer membrane damage in Escherichia coli assessed as increase in NPN intensity at 5 uM measured after 24 hrs incubation by microplate reader based outer membrane permeability assay; format: subcellular
Escherichia coli [11] = assay: Induction of LPS transport pathway related genes in Escherichia coli assessed as change in LptG gene expression at 12.5 uM measured after 2 hrs incubation by PCR analysis; format: functional, organism-based
Escherichia coli [12] = assay: Induction of LPS transport pathway related genes in Escherichia coli assessed as change in LptE gene expression at 12.5 uM measured after 2 hrs incubation by PCR analysis; format: functional, organism-based
[13] = Stability of the compound in human serum assessed as remaining peptide by RP-HPLC analysis; format: ADME, cell-free
[14] = Toxicity in C57BL/6 female mouse assessed as apparent inflammatory exudates ([…], neutrophiles, macrophages) in lungs at 25 mg/kg, ip measured during 14 days of study by H and E staining based analysis; format: organism-based; conditions: in vivo, 336 h, time 14 day
[15] = Toxicity in C57BL/6 mouse assessed as death at 50 mg/kg, ip measured on day 4; format: organism-based; conditions: in vivo, 96 h, time 4 day
[16] = Toxicity in C57BL/6 female mouse assessed as haemorrhagic point and blurred white pulp boundary in liver at 25 mg/kg, ip measured during 14 days of study by H and E staining based analysis; format: organism-based; conditions: in vivo, 336 h, time 14 day
Staphylococcus aureus = assay: Antibacterial activity against Staphylococcus aureus ATCC 25923 assessed as inhibition of bacterial growth measured after 24 hrs by broth microdilution method; format: functional
Escherichia coli [17] = assay: Induction of LPS transport pathway related genes in Escherichia coli assessed as change in LptD gene expression at 12.5 uM measured after 2 hrs incubation by PCR analysis; format: functional, organism-based
Cell membrane [18] = assay: Induction of Outer membrane damage in Escherichia coli assessed as pore formation and surface rupture at 5 uM measured after 24 hrs by SEM imaging analysis; format: subcellular
Klebsiella pneumoniae = assay: Antibacterial activity against Klebsiella pneumoniae ATCC 13883 assessed as inhibition of bacterial growth measured after 24 hrs by broth microdilution method; format: functional
Escherichia coli [19] = assay: Antibacterial activity against Escherichia coli assessed as reduction in CFU at 5 uM measured upto 60 mins by Time-killing assay; format: functional, organism-based
[20] = Stability of the compound in human serum assessed as retention time by RP-HPLC analysis; format: ADME, cell-free
Escherichia coli [21] = assay: Induction of metabolism related pathways in Escherichia coli assessed as lipid metabolism pathway mRNAs at 12.5 uM measured after 2 hrs incubation by PCR analysis; format: functional, organism-based
Escherichia coli [22] = assay: In vivo antibacterial activity against Escherichia coli intraperitoneally injected into C57BL/6 mouse peritonitis model assessed as reduction in bacterial load in spleen at 2.5 mg/kg, ip measured after 48 hrs relative to control; format: functional, organism-based
[23] = Hemolytic activity in human RBC assessed as hemolysis incubated for 1 hr by microplate reader; format: toxicity, cell-based, Erythrocyte; conditions: erythrocyte, 1 h
Pseudomonas aeruginosa [24] = assay: Antibacterial activity against Pseudomonas aeruginosa PAO1 assessed as inhibition of bacterial growth measured after 24 hrs by broth microdilution method; format: functional
NIH3T3 = assay: Cytotoxicity against mouse NIH3T3 cells assessed as cell viability measured upto 50 uM incubated for 24 hrs by CCK-8 assay; format: toxicity, cell-based; conditions: nih3t3, 24 h
Escherichia coli [25] = assay: Induction of multiple envelope stress pathway related pathways in Escherichia coli assessed as change in WcaB gene expression at 12.5 uM measured after 2 hrs incubation by PCR analysis; format: functional, organism-based
Salmonella typhimurium = assay: Antibacterial activity against Salmonella typhimurium assessed as inhibition of bacterial growth measured after 24 hrs by broth microdilution method; format: functional, Salmonella enterica subsp. enterica serovar Typhimurium; conditions: Salmonella enterica
Escherichia coli [26] = assay: Induction of multiple envelope stress pathway related pathways in Escherichia coli assessed as change in WcaL gene expression at 12.5 uM measured after 2 hrs incubation by PCR analysis; format: functional, organism-based
[27] = Stability of the compound in human serum assessed as peptide degradation by RP-HPLC analysis; format: ADME, cell-free; conditions: read-out: T50 (converted)
[28] = Toxicity in C57BL/6 mouse assessed as increase in body weight at 25 mg/kg, ip measured during 14 days of study; format: organism-based; conditions: in vivo, 336 h, time 14 day
Escherichia coli [29] = assay: Induction of LPS transport pathway related genes in Escherichia coli assessed as change in LptA gene expression at 12.5 uM measured after 2 hrs incubation by PCR analysis; format: functional, organism-based
Escherichia coli [30] = assay: Induction of assembly related pathways in Escherichia coli assessed as change in BamB gene expression at 12.5 uM measured after 2 hrs incubation by PCR analysis; format: functional, organism-based
Escherichia coli [31] = assay: Induction of outer membrane synthesis related pathways in Escherichia coli assessed as change in OmpC gene expression at 12.5 uM measured after 2 hrs incubation by PCR analysis; format: functional, organism-based
Escherichia coli [32] = assay: In vivo antibacterial activity against Escherichia coli intraperitoneally injected into C57BL/6 mouse peritonitis model assessed as mouse survival at 2.5 mg/kg, ip measured after 48 hrs relative to control; format: functional
Escherichia coli [33] = assay: In vivo antibacterial activity against Escherichia coli intraperitoneally injected into C57BL/6 mouse peritonitis model assessed as reduction in bacterial load in blood at 2.5 mg/kg, ip measured after 48 hrs relative to control; format: functional, organism-based
Mus musculus = assay: In vivo anti-inflammatory efficacy in Escherichia coli intraperitoneally injected into C57BL/6 mouse peritonitis model assessed as reduction in IL-6 level in blood at 2.5 mg/kg, ip measured after 48 hrs by ELISA; format: functional, organism-based

With `CC[C@H](C)[C@H](NC(=O)CNC(=O)[C@H](CC(=O)O)NC(=O)[C@H](CCCNC(=N)N)NC(=O)[C@@H](NC(=O)[C@H](CC(N)=O)NC(=O)[C@H](CCC(N)=O)NC(=O)CNC(=O)[C@@H](NC(=O)[C@H](CCCCN)NC(=O)[C@H](CCC(=O)O)NC(=O)[C@@H](NC(=O)[C@H](CCCCN)NC(=O)[C@H](CCCCN)NC(=O)[C@H](Cc1ccccc1)NC(=O)[C@H](CC(C)C)NC(=O)[C@H](CCCCN)NC(=O)[C@H](Cc1c[nH]c2ccccc12)NC(=O)[C@H](CCCCN)NC(C)=O)[C@@H](C)CC)C(C)C)[C@@H](C)CC)C(=O)N[C@H](C(=O)N[C@@H](CCCCN)C(=O)N[C@@H](C)C(=O)NCC(=O)N1CCC[C@H]1C(=O)N[C@@H](C)C(=O)N[C@H](C(=O)N[C@@H](C)C(=O)N[C@H](C(=O)N[C@H](C(=O)NCC(=O)N[C@@H](CCC(N)=O)C(=O)N[C@@H](C)C(=O)N[C@@]1(C)CCC/C=C\CCC[C@@](C)(C(N)=O)NC(=O)[C@H](C)NC(=O)[C@H]([C@@H](C)CC)NC(=O)[C@H](CCC(N)=O)NC1=O)C(C)C)C(C)C)C(C)C)[C@@H](C)CC` (Ac-KWKLFKKIEKVGQNIRDGIIKAGPAVAVVGQA[S5]QIA[S5]-NH2; staple (Z) 33-37) the MIC (Shigella flexneri) was 1.56 µM (≈ 6.34 µg/mL), the Activity (Escherichia coli [1]) was “Active” and the MIC (Pseudomonas aeruginosa [2]) was 12.5 µM (≈ 50.8 µg/mL). For the same molecule, the Activity (Escherichia coli [3]) was “Active”, the Activity (Escherichia coli [4]) was “Active” and the Activity (Escherichia coli [5]) was “Active”. The Activity [6] was “Non-toxic”, the Activity (Escherichia coli [7]) was “Active; Compound Showed Enhanced Bacterial Elimination Than Cec-0 And Compound Showed Comparable Bacterial Elimination To Polymyxin B” and the Activity (Escherichia coli [8]) was “Active”. For the same molecule, the Activity (Escherichia coli [9]) was “Active”, the Activity (Cell membrane [10]) was “Active” and the Activity (Escherichia coli [11]) was “Active”. For the same molecule, the Activity (Escherichia coli [12]) was “Active”, the Stability [13] was > 50% and the Activity [14] was “Non-toxic”. For the same molecule, the Activity [15] was “Toxic”, the Activity [16] was “Non-toxic” and the MIC (Staphylococcus aureus) was 3.13 µM (≈ 12.7 µg/mL). For the same molecule, the Activity (Escherichia coli [17]) was “Active”, the Activity (Cell membrane [18]) was “Active” and the MIC (Klebsiella pneumoniae) was 3.13 µM (≈ 12.7 µg/mL). For the same molecule, the Activity (Escherichia coli [19]) was “Active”, the Retention_time [20] was 25.17 min and the Activity (Escherichia coli [21]) was “Active”. For the same molecule, the Activity (Escherichia coli [22]) was “Active; Compound Showed Enhanced Bacterial Elimination Than Cec-0”, the Activity [23] was “Non-toxic” and the MIC (Pseudomonas aeruginosa [24]) was 6.25 µM (≈ 25.4 µg/mL). The Activity (NIH3T3) was “Non-toxic”, the Activity (Escherichia coli [25]) was “Active” and the MIC (Salmonella typhimurium) was 3.13 µM (≈ 12.7 µg/mL). The Activity (Escherichia coli [26]) was “Active”, the half-life [27] was 9.85 h and the Activity [28] was “Toxic”. The Activity (Escherichia coli [29]) was “Active”, the Activity (Escherichia coli [30]) was “Active” and the Activity (Escherichia coli [31]) was “Active”. For the same molecule, the Activity (Escherichia coli [32]) was 67%, the Activity (Escherichia coli [33]) was “Active; Compound Showed Enhanced Bacterial Elimination Than Cec-0 And Compound Showed Comparable Bacterial Elimination To Polymyxin B” and the Activity (Mus musculus) was “Active”.
